Measurements reported in patent publication US10800810B2, “Active peptide for inhibiting AMPA receptor and preparation method and use thereof” (CHINA NATIONAL RESEARCH INSTITUTE OF FOOD AND FERMENTATION …, priority 2015, dated 2020).

How the values were obtained:
NMDA receptor [1] = test: Current induced by NMDA, patch clamp; format: cell-based, mouse; conditions: 100 μM NMDA plus 20 μM EGAR, P>0.05, n=6
Procedure: (§1) The slices of the hippocampus are transferred to an underwater recording room (Warner instrument). In the recording room, the slices are continuously perfused with ACSF at a speed of 3 ml/min, and whole-cell records of neurons of CA1 region of the hippocampus are performed by those experimenters who are not distinguished between a control group and a treated group. The neurons are identified through morphological recognition using an infrared ray differential interference phase-contrast microscope (BX51W, Olympus, Japan). A borosilicate microtube of 1.5 mm (external diameter)×0.86 mm (internal diameter) is drawn via a flame Brown electrode drawing instrument (P-97, Sutter instrument) using a 4 stage drawing scheme, to form a recording electrode with a resistance between 6-9 megohms. The recording electrode for recording is filled with above-mentioned internal liquid, and a whole-cell recording is proceeded by using above-mentioned external liquid.
(§2) (4) With regard to records of currents induced by NMDA, 100 μM of NMDA is added into above-mentioned external liquid; with regard to records of currents induced by AMPA, 20 μM of AMPA is added into above-mentioned external liquid.

AMPA receptor [2] = test: AMPAR-mediated EPSC and mEPSC in mouse hippocampal slices; format: cell-based
Procedure: as §1
(§3) Bipolar polytetrafluoroethylene insulated iridium is used to perform a voltage-clamp recording of excitatory postsynaptic currents (EPSCs), and platinum microelectrode (AM system) is induced at a frequency of 0.0167 Hz. Records are taken by a Multiclamp 700B amplifier, filtered at 10 kHz, sampled at 200 microseconds, and recorded to a personal computer by using pClamp10.2 software, and then analyzed by using Axon Digidata 1440A and pClamp10.2 (Molecular Devices).
(§4) (2) after blocking components of NMDA receptor-mediated EPSCs by adding 50 μM of D-APV to ACSF and blocking AMPAR-mediated EPSCs by adding 10 μM of CNQX to ACSF, remaining EPSCs of both them are also recorded. 10 μM of PTX is added in external liquid to isolate mEPSCs. After 10 μM of CNQX and 20 μM of EGAR and also 50 μM of D-APV (an antagonist of NMDA receptor) and 20 μM of EGAR are added to ACSF, mEPSCs are also recorded. By adding 10 μM of CNQX or 50 μM of D-APV to ACSF, NMDAR-mediated or AMPAR-mediated mEPSCs are isolated.
(3) With regard to a NMDAR-mediated current record, 100 μM of NMDA is added into the above-mentioned external liquid; and with regard to an AMPAR-mediated current record, 20 μM of AMPA is added into above-mentioned external liquid.

NMDA receptor [3] = test: NMDAR-mediated EPSC and mEPSC in mouse hippocampal slices; format: cell-based
Procedure: as §1, §3
as §4, with “isolated. […]” for “isolated.”

AMPA receptor [4] = test: Current induced by AMPA, patch clamp; format: cell-based, mouse
Procedure: as §1, §2

CA1 neuron = test: Effect on electrophysiological properties of a neuron; format: cell-based, mouse
Procedure: as §1

hippocampal neuron = test: Epilepsy-like discharge of a hippocampal neuron induced by low magnesium external liquid; format: cell-based, mouse
Procedure: as §1
(5) In an experiment of nominal zero magnesium, magnesium ions are replaced by sodium ions with the same osmotic concentration.

[5] = test system: PTZ-induced mouse epilepsy; test: Model of PTZ-induced epilepsy seizure; format: in vivo; conditions: for preclinical period of epilepsy seizure vs PBS treated group: 30 minutes before PTZ 55 mg/kg i.p.
Procedure: In order to determine anticonvulsive effect of EGAR, the degree of epilepsy after EGAR treatment is evaluated for the model of PTZ-induced epilepsy seizure. EGAR is injected into animals earlier 30 minutes than PTZ. The animals are randomly divided into 4 groups, and each group has 10 animals. 4 groups are given EGAR at 0, 1, 10 and 100 mg/kg respectively. All animals are intraperitoneally injected with PTZ at a dose of 55 mg/kg, and this dose can produce clonic seizures in all control animals.
Behaviors of mice are observed for 30 minutes immediately after PTZ injection. […] Mice are placed in a transparent plastic cage, and are observed for 30 minutes. The cage is thoroughly cleaned by using wet/dry cloth and any olfactory clue is removed with 70% ethanol. Animals that show rampage and forelimb clonus or more serious behavior (rampage, clonus and fall down) are considered to be epilepsy in mouse brain edge. Epilepsy seizure is scored according to the following criteria: 0, no response; 1, immobile; 2, taste movement and grasping; 3, tremor; 4, head shaking; 5, rampage and forelimb clonus; 6, rampage, clonus and fall down; 7, death.

[6] = test system: neurons of CA1 region of the hippocampus; test: Whole-cell recording of EPSC and mEPSC in mouse hippocampal slices; format: cell-based; conditions: for amplitudes of mEPSCs: P<0.03
Procedure: Hippocampus is taken from a C57BL/6 mouse to do whole-cell recording. The mouse is deep narcotized with 20% urethane before being decollated, then its brain is rapidly removed and immersed in ice-cold ACSF, then the brain is trimmed, and fixed onto a vibration slicer (Leica VT1000A, Germany) to be cut into coronal slices of 350 microns. The slices are incubated with ACSF for at least 1 hour at room temperature before recording.
as §1, §3
Experiments mentioned below are carried out respectively, and the results are represented by an average value±S.E.M. In addition to data analysis of cumulative probability by the means of K-S test, statistical analyses of biological data are all performed by using T-test. All the statistical analyses are done by using SPSS 13.0 software.
(1) EPSCs of slices treated by EGAR are recorded, while EPSCs of slices without EGAR treatment is as contrast, and 10 μM of PTX is added into the external liquid to separate mEPSCs out.

[7] = background; cited from earlier work
[8] = test system: pentylenetetrazole (PTZ) model; conditions: background; cited from earlier work
[9] = behavioral experiment, overall conclusion

EGAR: tetrapeptide with an amino-acid sequence of SEQ ID No.17, contained in the salmon skin active peptide; synthetic EGAR used in tests (Salmo salar)
peak current of NMDA, difference between groups (NMDA receptor [1]): no significant difference
amplitude of AMPAR-mediated EPSC vs control group (AMPA receptor [2]; 50 μM D-APV and 20 μM EGAR, P<0.01, n=6): significantly lower
cumulative probabilities of AMPAR-mediated mEPSCs amplitudes vs control group (AMPA receptor [2]; K-S test, p<0.05, n=6): reduces
cumulative probabilities of AMPAR-mediated mEPSC event intervals vs control group (AMPA receptor [2]; K-S test, p>0.05, n=6): no difference in frequency
amplitude of AMPAR-mediated mEPSCs vs control group (AMPA receptor [2]; neurons treated by EGAR, P<0.05, t test, n=6): decline
frequencies of AMPAR-mediated mEPSCs vs control group (AMPA receptor [2]; neurons treated with EGAR, P>0.05, t test): do not change
amplitude of NMDAR-mediated EPSC vs control group (NMDA receptor [3]; 10 μM CNQX then 20 μM EGAR, P>0.05, n=6): not changed
frequencies of NMDAR-mediated mEPSCs (NMDA receptor [3]; 100 μM NMDA plus 20 μM EGAR, P>0.05): no significant difference
amplitudes of NMDAR-mediated mEPSCs (NMDA receptor [3]; 100 μM NMDA plus 20 μM EGAR, P>0.05, n=6): no significant difference
peak current of AMPA, difference between groups (AMPA receptor [4]; 20 μM AMPA plus 20 μM EGAR, P<0.01, n=6): significant difference
inward current induced by AMPA (AMPA receptor [4]; 20 μM AMPA, 20 μM EGAR, voltage-clamped at -70 mV): reduced
Action potential half width (CA1 neuron; 20 uM of EGAR treated group): 0.99 ± 0.01 ms
Amplitude (CA1 neuron; 20 uM of EGAR treated group): 87.61 ± 1.18 mV
Frequency (CA1 neuron; 20 uM of EGAR treated group): 13.53 ± 2.42 Hz
Input resistance (CA1 neuron; 20 uM of EGAR treated group): 164.57 ± 9.96 MΩ
Membrane capacitance (CA1 neuron; 20 uM of EGAR treated group): 19.07 ± 0.67 pF
Resting potential (CA1 neuron; 20 uM of EGAR treated group): −65.57 ± 1.23 mV
Threshold potential (CA1 neuron; 20 uM of EGAR treated group): −45.61 ± 0.2 mV
effect on electrophysiological parameters of a CA1 neuron (CA1 neuron; overall conclusion of Table 2): no significant effect
frequency of a peak current caused by low magnesium, difference between groups (hippocampal neuron; 20 μM EGAR, P<0.05, n=6): significant difference
epilepsy-like discharge of a hippocampal neuron induced by low magnesium external liquid (hippocampal neuron; overall conclusion): can inhibit
preclinical period of epilepsy seizure vs PBS treated group ([5]; 1 mg/kg EGAR): significant difference
preclinical period of epilepsy seizure vs PBS treated group ([5]; 10 mg/kg EGAR): significant difference
preclinical period of epilepsy seizure vs PBS treated group ([5]; 100 mg/kg EGAR): significant difference
preclinical period of epilepsy seizure [5, 9]: extend the preclinical period
tic symptom of PTZ-induced mouse epilepsy [5, 9]: mitigate tic symptom
amplitudes of mEPSCs ([6]; 20 μM EGAR): reduce
amplitudes of mEPSCs ([6]; 50 μM EGAR): reduce
amplitudes of mEPSCs ([6]; 100 μM EGAR): reduce
cumulative probabilities of mEPSC event intervals vs control group ([6]; EGAR treated groups at concentrations): no difference
cumulative probabilities of mEPSC amplitudes vs control group ([6]; EGAR treated groups at concentrations, K-S test p<0.05): reduced
mEPSC frequencies vs control group ([6]; slices treated with EGAR, 10 μM PTX): no change

NS(=O)(=O)c1cccc2c1c([N+](=O)[O-])cc1nc(O)c(O)nc12 [NBQX, 2,3-dihydroxy-6-nitro-7-sulfamoyl benzo [f] quinoxaline]
solubility [7]: low solubility
effect in pentylenetetrazole (PTZ) model [8]: can play a role
